Data published in BigSolDB 2.1.

c1ccc2oc(CSCc3nc4ccccc4o3)nc2c1
Conditions	solubility (mole fraction)
in chlorobenzene, 274.85 K	0.00424
in chlorobenzene, 278.15 K	0.00514
in chlorobenzene, 283.15 K	0.00684
in chlorobenzene, 287.95 K	0.00889
in chlorobenzene, 292.95 K	0.0119
in chlorobenzene, 298.35 K	0.0157
in chlorobenzene, 303.25 K	0.0205
in chlorobenzene, 308.15 K	0.0262
in chlorobenzene, 313.25 K	0.0341
in chlorobenzene, 318.05 K	0.0427
in ethanol, 274.15 K	0.00741
in ethanol, 278.15 K	0.00978
in ethanol, 283.15 K	0.014
in ethanol, 288.35 K	0.02
in ethanol, 291.15 K	0.0236
in ethanol, 293.15 K	0.0279
in ethanol, 295.55 K	0.0318
in ethanol, 298.15 K	0.0377
in ethanol, 300.25 K	0.0435
in ethanol, 302.95 K	0.052
in ethanol, 305.15 K	0.0578
in ethanol, 308.15 K	0.0704
in isopropanol, 278.15 K	0.00231
in isopropanol, 283.15 K	0.00333
in isopropanol, 289.15 K	0.00523
in isopropanol, 293.15 K	0.00703
in isopropanol, 298.15 K	0.0105
in isopropanol, 303.15 K	0.014
in isopropanol, 308.15 K	0.0194
in isopropanol, 313.15 K	0.0268
in isopropanol, 318.15 K	0.0372
in isopropanol, 323.15 K	0.051
in n-butanol, 278.35 K	0.00349
in n-butanol, 283.15 K	0.00494
in n-butanol, 288.15 K	0.00698
in n-butanol, 293.25 K	0.00986
in n-butanol, 298.15 K	0.0142
in n-butanol, 303.25 K	0.0199
in n-butanol, 308.15 K	0.0271
in n-butanol, 313.25 K	0.0372
in n-butanol, 318.15 K	0.0516
in n-butanol, 323.15 K	0.0679
in o-xylene, 273.35 K	0.000297
in o-xylene, 278.15 K	0.000431
in o-xylene, 283.15 K	0.00064
in o-xylene, 287.95 K	0.000899
in o-xylene, 293.05 K	0.00138
in o-xylene, 298.15 K	0.00203
in o-xylene, 303.15 K	0.00305
in o-xylene, 308.35 K	0.00443
in o-xylene, 313.15 K	0.00656
in o-xylene, 318.15 K	0.00904
in toluene, 274.15 K	0.000608
in toluene, 278.15 K	0.000971
in toluene, 283.15 K	0.00176
in toluene, 288.15 K	0.00306
in toluene, 293.15 K	0.00522
in toluene, 298.15 K	0.00861
in toluene, 303.15 K	0.0139
in toluene, 308.15 K	0.024
in toluene, 313.25 K	0.0292
in toluene, 318.15 K	0.0413
